Reference: US10118918B2, “PRMT5 inhibitors and uses thereof” (Epizyme, Inc., priority 2012, dated 2018)
Read-outs that look alike come from different tables or passages of the source.

Experiments:
PRMT5/MEP50 = PRMT5/MEP50 (Homo sapiens (Human), UniProt O14744); assay: PRMT5 Biochemical Assay (PRMT5/MEP50 enzyme assay on peptide substrate, 3H-SAM Flashplate); settings: PRMT5/MEP50 4 nM, 3H-SAM 75 nM, peptide 40 nM
Source text: S-adenosylmethionine (SAM), S-adenosylhomocysteine (SAH), bicine, KCl, Tween20, dimethylsulfoxide (DMSO), bovine skin gelatin (BSG), and Tris(2-carboxyethyl)phosphine hydrochloride solution (TCEP) were purchased from Sigma-Aldrich at the highest level of purity possible. ^3H-SAM was purchase from American Radiolabeled Chemicals with a specific activity of 80 Ci/mmol. 384-well streptavidin Flashplates were purchased from PerkinElmer.
Peptide representative of human histone H4 residues 1-15 was synthesized with a C-terminal linker-affinity tag motif and a C-terminal amide cap by 21st Century Biochemicals. The peptide was high high-performance liquid chromatography (HPLC) purified to greater than 95% purity and confirmed by liquid chromatography mass spectrometry (LC-MS). The sequence was Ac-[…][K-Biot]-amide (SEQ ID NO.: 3).
Full-length human PRMT5 (NM_006109.3) transcript variant 1 clone was amplified from a fetal brain cDNA library, incorporating flanking 5′ sequence encoding a FLAG tag ([…]) (SEQ ID NO.: 4) fused directly to Ala 2 of PRMT5. Full-length human MEP50 (NM_024102) clone was amplified from a human testis cDNA library incorporating a 5′ sequence encoding a 6-histidine tag (MHHHHHH) (SEQ ID NO.: 5) fused directly to Arg 2 of MEP50. The amplified genes were sublconed into pENTR/D/TEV (Life Technologies) and subsequently transferred by Gateway™ attL x attR recombination to pDEST8 baculvirus expression vector (Life Technologies).
Recombinant baculovirus and Baculovirus-Infected Insect Cells (BIIC) were generated according to Bac-to-Bac kit instructions (Life Technologies) and Wasilko, 2006, respectively. Protein over-expression was accomplished by infecting exponentially growing Spodoptera frugiperda (SF9) cell culture at 1.2×10^6 cell/ml with a 5000 fold dilution of BIIC stock. Infections were carried out at 27° C. for 72 hours, harvested by centrifugation, and stored at −80° C. for purification.
Flag-PRMT5/6His-MeP50 was eluted with 300 mM Imidazole in the same buffer. The purity of recovered protein was 87%. Reference: Wasilko, D. J. and S. E. Lee: “TIPS: titerless infected-cells preservation and scale-up” Bioprocess J., 5 (2006), pp. 29-32.
General Procedure for PRMT5/MEP50 Enzyme Assays on Peptide Substrates.
The assays were all performed in a buffer consisting of 20 mM Bicine (pH=7.6), 1 mM TCEP, 0.005% BSG, and 0.002% Tween20, prepared on the day of use. Compounds in 100% DMSO (1 ul) were spotted into a polypropylene 384-well V-bottom plates (Greiner) using a Platemate Plus outfitted with a 384-channel head (Thermo Scientific). DMSO (1 ul) was added to Columns 11, 12, 23, 24, rows A-H for the maximum signal control and 1 ul of SAH, a known product and inhibitor of PRMT5/MEP50, was added to columns 11, 12, 23, 24, rows I-P for the minimum signal control. A cocktail (40 ul) containing the PRMT5/MEP50 enzyme and the peptide was added by Multidrop Combi (Thermo-Fisher). The compounds were allowed to incubate with PRMT5/MEP50 for 30 min at 25 degrees Celsius, then a cocktail (10 ul) containing ^3H-SAM was added to initiate the reaction (final volume=51 ul). The final concentrations of the components were as follows: PRMT5/MEP50 was 4 nM, ^3H-SAM was 75 nM, peptide was 40 nM, SAH in the minimum signal control wells was 100 uM, and the DMSO concentration was 1%. The assays were stopped by the addition of non-radioactive SAM (10 ul) to a final concentration of 600 uM, which dilutes the ^3H-SAM to a level where its incorporation into the peptide substrate is no longer detectable. 50 ul of the reaction in the 384-well polypropylene plate was then transferred to a 384-well Flashplate and the biotinylated peptides were allowed to bind to the streptavidin surface for at least 1 hour before being washed three times with 0.1% Tween20 in a Biotek ELx405 plate washer. […]

[1] = tested on: symmetric di-methyl arginine in Z-138 cells; assay: Z-138 Methylation Assay (In Cell Western for symmetric di-methyl arginine and DNA content); type: cell-based; settings: 96 hours incubation, read-out: ICW EC50
Source text: [formula] Where top and bottom are the normally allowed to float, but may be fixed at 100 or 0 respectively in a 3-parameter fit. The Hill Coefficient normally allowed to float but may also be fixed at 1 in a 3-parameter fit. Y is the % inhibition and X is the compound concentration. Z-138 Methylation Assay
Z-138 suspension cells were purchased from ATCC (American Type Culture Collection, Manassas, Va.). RPMI/Glutamax medium, penicillin-streptomycin, heat inactivated fetal bovine serum, and D-PBS were purchased from Life Technologies, Grand Island, N.Y., USA. Odyssey blocking buffer, 800CW goat anti-rabbit IgG (H+L) antibody, and Licor Odyssey infrared scanner were purchased from Licor Biosciences, Lincoln, Nebr., USA. Symmetric di-methyl arginine antibody was purchased from EMD Millipore, Billerica, Mass., USA. 16% Paraformaldehyde was purchased from Electron Microscopy Sciences, Hatfield, Pa., USA.
Z-138 suspension cells were maintained in growth medium (RPMI 1640 supplemented with 10% v/v heat inactivated fetal bovine serum and 100 units/mL penicillin-streptomycin) and cultured at 37° C. under 5% CO2.
Cell Treatment, in Cell Western (ICW) for Detection of Symmetric Di-Methyl Arginine and DNA Content.
Z-138 cells were seeded in assay medium at a concentration of 50,000 cells per mL to a 384-well cell culture plate with 50 μL per well. Compound (100 nL) from 384 well source plates was added directly to 384 well cell plate. Plates were incubated at 37° C., 5% CO2 for 96 hours. After four days of incubation, 40 μL of cells from incubated plates were added to poly-D-lysine coated 384 well culture plates (BD Biosciences 356697). Plates were incubated at room temperature for 30 minutes then incubated at 37° C., 5% CO2 for 5 hours. After the incubation, 40 μL per well of 8% paraformaldehyde in PBS (16% paraformaldahyde was diluted to 8% in PBS) was added to each plate and incubated for 30 minutes. Plates were transferred to a Biotek 405 plate washer and washed 5 times with 100 μL per well of wash buffer (IX PBS with 0.1% Triton X-100 (v/v)). Next 30 μL per well of Odyssey blocking buffer were added to each plate and incubated 1 hour at room temperature. Blocking buffer was removed and 20 μL per well of primary antibody was added (symmetric di-methyl arginine diluted 1:100 in Odyssey buffer with 0.1% Tween 20 (v/v)) and plates were incubated overnight (16 hours) at 4° C. Plates were washed 5 times with 100 μL per well of wash buffer. Next 20 μL per well of secondary antibody was added (1:200 800CW goat anti-rabbit IgG (H+L) antibody, 1:1000 DRAQ5 (Biostatus limited) in Odyssey buffer with 0.1% Tween 20 (v/v)) and incubated for 1 hour at room temperature. The plates were washed 5 times with 100 μL per well wash buffer then 1 time with 100 μL per well of water. Plates were allowed to dry at room temperature then imaged on the Licor Odyssey machine which measures integrated intensity at 700 nm and 800 nm wavelengths. Both 700 and 800 channels were scanned.
First, the ratio for each well was determined by:
Each plate included fourteen control wells of DMSO only treatment (minimum inhibition) as well as fourteen control wells for maximum inhibition treated with 3 μM of a reference compound (Background wells). The average of the ratio values for each control type was calculated and used to determine the percent inhibition for each test well in the plate. Reference compound was serially diluted three-fold in DMSO for a total of nine test concentrations, beginning at 3 μM. Percent inhibition was determined and IC50 curves were generated using triplicate wells per concentration of compound. […]

Z-138 cells = assay: Z-138 Proliferation Assay (Cell Titer Glo); type: cell-based; settings: Homo sapiens, 120 h, 5 days incubation
Source text: [formula] Z-138 Proliferation Assay
Z-138 suspension cells were purchased from ATCC (American Type Culture Collection, Manassas, Va.). RPMI/Glutamax medium, penicillin-streptomycin, heat inactivated fetal bovine serum were purchased from Life Technologies, Grand Island, N.Y., USA. V-bottom polypropylene 384-well plates were purchased from Greiner Bio-One, Monroe, N.C., USA. Cell culture 384-well white opaque plates were purchased from Perkin Elmer, Waltham, Mass., USA. Cell-Titer Glo® was purchased from Promega Corporation, Madison, Wis., USA. SpectraMax M5 plate reader was purchased from Molecular Devices LLC, Sunnyvale, Calif., USA.
Z-138 suspension cells were maintained in growth medium (RPMI 1640 supplemented with 10% v/v heat inactivated fetal bovine serum and cultured at 37° C. under 5% CO2. Under assay conditions, cells were incubated in assay medium (RPMI 1640 supplemented with 10% v/v heat inactivated fetal bovine serum and 100 units/mL penicillin-streptomycin) at 37° C. under 5% CO2.
For the assessment of the effect of compounds on the proliferation of the Z-138 cell line, exponentially growing cells were plated in 384-well white opaque plates at a density of 10,000 cells/ml in a final volume of 50 μl of assay medium. A compound source plate was prepared by performing triplicate nine-point 3-fold serial dilutions in DMSO, beginning at 10 mM (final top concentration of compound in the assay was 20 μM and the DMSO was 0.2%). A 100 nL aliquot from the compound stock plate was added to its respective well in the cell plate. […] After addition of compounds, assay plates were incubated for 5 days at 37° C., 5% CO2, relative humidity >90%.
Cell viability was measured by quantitation of ATP present in the cell cultures, adding 35 μl of Cell Titer Glo® reagent to the cell plates. Luminescence was read in the SpectraMax M5 microplate reader. The concentration of compound inhibiting cell viability by 50% was determined using a 4-parametric fit of the normalized dose response curves.

Chain of PRMT5/MEP50 (O14744 other isoform, or with tags, fused parts or gaps): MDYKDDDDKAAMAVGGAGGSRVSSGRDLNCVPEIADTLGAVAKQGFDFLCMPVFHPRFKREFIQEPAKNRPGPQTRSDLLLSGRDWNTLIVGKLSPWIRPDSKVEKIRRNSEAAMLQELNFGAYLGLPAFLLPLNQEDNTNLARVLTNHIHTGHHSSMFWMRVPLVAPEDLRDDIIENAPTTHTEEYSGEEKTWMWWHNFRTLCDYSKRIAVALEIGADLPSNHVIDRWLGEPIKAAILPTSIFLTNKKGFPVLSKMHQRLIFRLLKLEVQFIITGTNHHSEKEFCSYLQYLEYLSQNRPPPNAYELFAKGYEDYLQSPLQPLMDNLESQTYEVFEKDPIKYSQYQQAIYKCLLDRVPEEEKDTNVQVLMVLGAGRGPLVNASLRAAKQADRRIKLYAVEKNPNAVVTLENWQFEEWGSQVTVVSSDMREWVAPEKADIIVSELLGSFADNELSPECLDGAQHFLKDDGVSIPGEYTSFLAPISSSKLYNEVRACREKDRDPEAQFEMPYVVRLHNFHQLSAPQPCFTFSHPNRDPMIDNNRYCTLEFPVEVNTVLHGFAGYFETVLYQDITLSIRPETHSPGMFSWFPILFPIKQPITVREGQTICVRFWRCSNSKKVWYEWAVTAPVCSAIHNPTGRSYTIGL
Chain of PRMT5/MEP50 (Q9BQA1 other isoform, or with tags, fused parts or gaps partner): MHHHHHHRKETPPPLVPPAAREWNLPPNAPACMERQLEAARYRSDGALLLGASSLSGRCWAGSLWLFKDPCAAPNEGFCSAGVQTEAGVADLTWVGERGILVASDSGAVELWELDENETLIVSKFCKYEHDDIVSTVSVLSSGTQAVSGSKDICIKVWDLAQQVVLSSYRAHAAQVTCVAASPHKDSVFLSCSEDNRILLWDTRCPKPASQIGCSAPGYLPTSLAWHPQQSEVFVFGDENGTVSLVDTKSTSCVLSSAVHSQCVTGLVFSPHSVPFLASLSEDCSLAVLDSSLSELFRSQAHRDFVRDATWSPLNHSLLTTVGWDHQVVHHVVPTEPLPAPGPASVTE

| Compound | IC50 (PRMT5/MEP50) | EC50 [1] | EC50 (Z-138 cells) | EC50 ([1]; Homo sapiens) |
| --- | --- | --- | --- | --- |
| 2-(2-(1H-pyrazol-3-yl)phenoxy)-N-(2-hydroxy-3-(isoindolin-2-yl)propyl)acetamide [compound 8] | 0.101 to 1 µM | 0.101 to 1 µM |  |  |
| O=C(COc1cccc2cccnc12)NC[C@H](O)CN1Cc2ccccc2C1 [compound 4] |  |  | 1 to 10 µM | 0.101 to 1 µM |
| Cn1cnc2ccc(-c3cccc(OCC(O)CN4Cc5ccccc5C4)c3)cc21 (centres unmarked) [compound 9, 1-(isoindolin-2-yl)-3-(3-(1-methyl-1H-benzo[d]imidazol-6-yl)phenoxy)propan-2-ol] | 1 to 10 µM |  |  |  |
| CC(C)(C)OC(=O)Nc1cccc(C(=O)NCC(O)CN2Cc3ccccc3C2)c1 (centres unmarked) [compound 11, tert-butyl (3-((2-hydroxy-3-(isoindolin-2-yl)propyl)carbamoyl)phenyl)carbamate] | 0.101 to 1 µM |  |  | 1 to 10 µM |
| CS(=O)(=O)c1ccccc1OCC(=O)NCC(O)CN1Cc2ccccc2C1 (centres unmarked) [compound 12, N-(2-hydroxy-3-(isoindolin-2-yl)propyl)-2-(2-(methylsulfonyl)phenoxy)acetamide] | 0.101 to 1 µM |  |  | 0.101 to 1 µM |
| O=C(COc1cccc2cccnc12)NC[C@@H](O)CN1Cc2ccccc2C1 [compound 16, (R)—N-(2-hydroxy-3-(isoindolin-2-yl)propyl)-2-(quinolin-8-yloxy)acetamide] | 1 to 10 µM |  |  |  |
| COc1ccc(Cn2cnc3ccc(-c4ccc(OCC(O)CN5Cc6ccccc6C5)cc4)cc32)cc1 (centres unmarked) [compound 18] | 1 to 10 µM |  |  |  |
| OC(COc1cccc(CNC2CCCC2)c1)CN1Cc2ccccc2C1 (centres unmarked) [compound 20, 1-(3-((cyclopentylamino)methyl)phenoxy)-3-(isoindolin-2-yl)propan-2-ol] | 1 to 10 µM |  | 10 to 50 µM |  |
| CN(C)S(=O)(=O)c1ccccc1OCC(=O)NC[C@@H](O)CN1Cc2ccccc2C1 [compound 21] |  |  | > 20 µM | 0.101 to 1 µM |
| CN1CCOc2cccc(OCC(=O)NC[C@@H](O)CN3Cc4ccccc4C3)c21 [compound 22] |  |  |  | 1 to 10 µM |
| CN(C)S(=O)(=O)c1ccccc1OCC(=O)NC[C@H](O)CN1Cc2ccccc2C1 [compound 23] |  |  | 0.101 to 1 µM | < 0.1 µM |
| O=C(NC[C@@H](O)CN1Cc2ccccc2C1)c1cccc(NC2CCOCC2)c1 [compound 24] | < 0.1 µM |  |  |  |
| CN1CCOc2cccc(OCC(=O)NC[C@H](O)CN3Cc4ccccc4C3)c21 [compound 26] |  |  | > 20 µM | 0.101 to 1 µM |
| O=C(NC[C@H](O)CN1Cc2ccccc2C1)c1cncc(OC2CCOCC2)c1 [compound 31] |  |  |  | 1 to 10 µM |
| CC(=O)N1CCC(Nc2cc(C(=O)NC[C@H](O)CN3Cc4ccccc4C3)ncn2)CC1 [compound 39] | < 0.1 µM |  | 0.101 to 1 µM |  |
| CC(=O)N1CC(Nc2cc(C(=O)NC[C@H](O)CN3CCc4ccccc43)ncn2)C1 [compound 41] | 1 to 10 µM |  | 10 to 50 µM |  |
| CC(=O)N1CCC(Nc2cc(C(=O)NC[C@H](O)CN3CCCCc4ccccc43)ccn2)CC1 [compound 51] | > 10 µM |  |  |  |
| O=C(NCCCN1Cc2ccccc2C1)c1cc(NC2COC2)ncn1 [compound 52] | > 10 µM |  |  |  |
| CC(=O)N1CCC(Nc2cc(C(=O)NC[C@H](O)CN3CCCc4ccccc4C3)ccn2)CC1 [compound 53] | 1 to 10 µM |  |  | > 1 µM |
| N-(2-hydroxy-3-(isoindolin-2-yl)propyl)-3-((tetrahydro-2H-pyran-4-yl)amino)benzamide [compound 6] | > 10 µM |  |  |  |
| tert-butyl (3-((2-hydroxy-3-(isoindolin-2-yl)propyl)carbamoyl)phenyl)carbamate [compound 2] | 1 to 10 µM |  |  |  |
